Patent publication US20140005163A1 (NOVARTIS AG, priority 2010, published 2014)
Values after ≈ are worked out from the molar mass of the structure shown.

Columns and labels:
[1] = system: PKB Ser473 phosphorylation in Rat1-myr-HA-p110 alpha cells; assay: Reverse protein array assay, PKB Ser473 phosphorylation in Rat1-myr-p110 alpha cells; type: cell-based; details: 0.5 h, pAkt Ser473, 30 minutes compound incubation, read-out: p-PKB IC50
Summary of the method: (§1)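 Rat1 cells expressing myristoylated HA-tagged p110 alpha, beta or delta were plated for at least 20 h, then exposed to 8-step serial compound dilutions (0.2% DMSO final) for 30 min at 37 °C. Lysates were spotted at four dilutions on protein microarrays, and relative fluorescence intensity of phospho-Ser473 PKB was calculated.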

[2] = Solubility at pH 6.8; type: physicochemical; details: pH 6.8, aqueous buffer, thermodynamic from solid; read-out: solubility
Summary of the method: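 Following the procedure of Zhou et al. (2007), compound solubility was determined at pH 6.8.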

[3] = system: PKB Ser473 phosphorylation in Rat1-myr-HA-p110 delta cells; assay: Reverse protein array assay, PKB Ser473 phosphorylation in Rat1-myr-p110 delta cells; type: cell-based; details: read-out: p-PKB IC50
Summary of the method: as §1

[4] = system: PKB Ser473 phosphorylation in Rat1-myr-HA-p110 beta cells; assay: Reverse protein array assay, PKB Ser473 phosphorylation in Rat1-myr-p110 beta cells; type: cell-based; details: 0.5 h, pAkt Ser473, 30 minutes incubation, read-out: p-PKB IC50
Summary of the method: as §1

[5] = system: S6 Ribosomal Protein phosphorylation Ser235/236 in TSC1 null mouse embryo fibroblast (MEF) cells; assay: Reverse protein array assay, S6 Ribosomal Protein phosphorylation Ser235/236 in TSC1 null MEF cells; type: cell-based; details: 1 h, pS6 ribosomal protein Ser235/236, 60 minutes incubation, read-out: p-S6 IC50
Summary of the method: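 TSC1−/− MEFs, seeded and held ≥20 h at 37 °C/5% CO2, were exposed to 8-step serial compound dilutions (0.02% DMSO final; DMSO vehicle control) for 60 min at 37 °C. Cells were then lysed on ice for 10 min and lysates spotted onto reverse protein array chips.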

Compound | IC50 [1] [nM] | solubility [2] [µg/mL] | IC50 [3] [nM] | IC50 [4] [nM] | IC50 [5] [nM]
Cc1nn(C)cc1-n1c(=O)n(C)c2cnc3ccc(-c4cccc(S(=O)(=O)N5CCCC5)c4)cc3c21 [Example 44, 1-(1,3-Dimethyl-1H-pyrazol-4-yl)-3-methyl-8-[3-(pyrrolidine-1-sulfonyl)-phenyl]-1,3-dihydro-imidazo[4,5-c]quinolin-2-one] | 41 | 8 (≈ 15.9 µM) | 134 | 42 | 80
Cc1nn(CC(=O)N2CCC2)cc1-n1c(=O)n(C)c2cnc3ccc(-c4cnc(N5CCCC5)nc4)cc3c21 [Example 247.2, 1-[1-(2-Azetidin-1-yl-2-oxo-ethyl)-3-methyl-1H-pyrazol-4-yl]-3-methyl-8-(2-pyrrolidin-1-yl-pyrimidin-5-yl)-1,3-dihydro-imidazo[4,5-c]quinolin-2-one] | 45 | 56 (≈ 107 µM) | 288 | 87 | 9
Cc1nn(C)cc1-n1c(=O)n(C)c2cnc3ccc(-c4ccc(C(N)=O)nc4)cc3c21 [Example 14, 5-[1-(1,3-Dimethyl-1H-pyrazol-4-yl)-3-methyl-2-oxo-2,3-dihydro-1H-imidazo[4,5-c]quinolin-8-yl]-pyridine-2-carboxylic acid amide] | 26 | 53 (≈ 128 µM) | 74 | 18 | 123
CCNc1cc(-c2ccc3ncc4c(c3c2)n(-c2cn(C)nc2Cl)c(=O)n4C)cnc1C [Example 87.2, 1-(3-Chloro-1-methyl-1H-pyrazol-4-yl)-8-(5-ethylamino-6-methyl-pyridin-3-yl)-3-methyl-1,3-dihydro-imidazo[4,5-c]quinolin-2-one] | < 5 | 222 (≈ 496 µM) | < 5 | < 5 | 1
COc1ccc(-c2ccc3ncc4[nH]c(=O)n(-c5cn(C)nc5C)c4c3c2)cn1 [Example 109, 1-(1,3-Dimethyl-1H-pyrazol-4-yl)-8-(6-methoxy-pyridin-3-yl)-1,3-dihydro-imidazo[4,5-c]quinolin-2-one] | 55 | 3 (≈ 7.76 µM) | 120 | 89 | 11
Cc1nn(C)cc1-n1c(=O)n(C)c2cnc3ccc(-c4cncc(NC5CCC5)c4)cc3c21 [Example 172, 8-(5-Cyclobutylamino-pyridin-3-yl)-1-(1,3-dimethyl-1H-pyrazol-4-yl)-3-methyl-1,3-dihydro-imidazo[4,5-c]quinolin-2-one] | 9 | 11 (≈ 25 µM) | 15 | 13 | 1
Cc1nn(C)cc1-n1c(=O)n(C)c2cnc3ccc(-c4ccc(-n5cccn5)cc4)cc3c21 [Example 51.1, 1-(1,3-Dimethyl-1H-pyrazol-4-yl)-3-methyl-8-(4-pyrazol-1-yl-phenyl)-1,3-dihydro-imidazo[4,5-c]quinolin-2-one] | < 5 | 5 (≈ 11.5 µM) | 29 | < 5 | 5
CCOc1ccc(-c2ccc3ncc4c(c3c2)n(-c2cn(C(C)C)nc2C)c(=O)n4C)cn1 [Example 3.7, 8-(6-Ethoxy-pyridin-3-yl)-1-(1-isopropyl-3-methyl-1H-pyrazol-4-yl)-3-methyl-1,3-dihydro-imidazo[4,5-c]quinolin-2-one] | 43 | 3 (≈ 6.78 µM) | 186 | 51 | 30
COc1ccc(-c2ccc3ncc4c(c3c2)n(-c2cn(C)nc2C)c(=O)n4C)cn1 [Example 2.5, 1-(1,3-Dimethyl-1H-pyrazol-4-yl)-8-(6-methoxy-pyridin-3-yl)-3-methyl-1,3-dihydro-imidazo[4,5-c]quinolin-2-one] | 18 | 13 (≈ 32.5 µM) | 36 | 18 | 10
CNc1cc(-c2ccc3ncc4c(c3c2)n(-c2cn(C)nc2C)c(=O)n4C)cnc1C [Example 163, 1-(1,3-Dimethyl-1H-pyrazol-4-yl)-3-methyl-8-(6-methyl-5-methylamino-pyridin-3-yl)-1,3-dihydro-imidazo[4,5-c]quinolin-2-one] | < 5 | 24 (≈ 58 µM) | 12 | < 5 | 2
Cc1nn(C)cc1-n1c(=O)n(C)c2cnc3ccc(-c4ccc(N5CCNCC5)nc4)cc3c21 [Example 126, 1-(1,3-Dimethyl-1H-pyrazol-4-yl)-3-methyl-8-(6-piperazin-1-yl-pyridin-3-yl)-1,3-dihydro-imidazo[4,5-c]quinolin-2-one] | 141 | > 455 | 266 | 265 | 5.33
Cc1nn(C(C)C)cc1-n1c(=O)n(C)c2cnc3ccc(-c4cncc(N)c4)cc3c21 [Example 45.3, 8-(5-Amino-pyridin-3-yl)-1-(1-isopropyl-3-methyl-1H-pyrazol-4-yl)-3-methyl-1,3-dihydro-imidazo[4,5-c]quinolin-2-one] | 14 | 4 (≈ 9.67 µM) | 213 | 36 | 46
Cc1nn(C(C)C)cc1-n1c(=O)n(C)c2cnc3ccc(-c4cnc(N)c(F)c4)cc3c21 [Example 142.3, 8-(6-Amino-5-fluoro-pyridin-3-yl)-1-(1-isopropyl-3-methyl-1H-pyrazol-4-yl)-3-methyl-1,3-dihydro-imidazo[4,5-c]quinolin-2-one] | 10 | 5 (≈ 11.6 µM) | 23 | 19 | 1
CCNc1cc(-c2ccc3ncc4c(c3c2)n(-c2cn(C)nc2C)c(=O)n4C)cnc1CO [Example 155.1, 1-(1,3-Dimethyl-1H-pyrazol-4-yl)-8-(5-ethylamino-6-hydroxymethyl-pyridin-3-yl)-3-methyl-1,3-dihydro-imidazo[4,5-c]quinolin-2-one] | 13 | 73 (≈ 165 µM) | 19 | 22 | 2

Now from value to molecule, other results behind:

IC50 [1] [nM] | solubility [2] [µg/mL] | IC50 [3] [nM] | IC50 [4] [nM] | Compound | IC50 [5] [nM]
28 | 3 (≈ 7.24 µM) | 62 | 38 | CCn1cc(-n2c(=O)n(C)c3cnc4ccc(-c5ccc(OC)nc5)cc4c32)c(C)n1 [Example 2.7, 1-(1-Ethyl-3-methyl-1H-pyrazol-4-yl)-8-(6-methoxy-pyridin-3-yl)-3-methyl-1,3-dihydro-imidazo[4,5-c]quinolin-2-one] | 6
47 | 31 (≈ 65.7 µM) | 102 | 43 | CCOc1ncc(-c2ccc3ncc4c(c3c2)n(-c2cn(C)nc2C)c(=O)n4C)cc1NC(C)=O [Example 65, N-{5-[1-(1,3-Dimethyl-1H-pyrazol-4-yl)-3-methyl-2-oxo-2,3-dihydro-1H-imidazo[4,5-c]quinolin-8-yl]-2-ethoxy-pyridin-3-yl}-acetamide] | 66
77 | 225 (≈ 462 µM) | 336 | 77 | CCOc1cc(-c2ccc3ncc4c(c3c2)n(-c2cn(C(C)C)nc2C)c(=O)n4C)cnc1COC [Example 197.2, 8-(5-Ethoxy-6-methoxymethyl-pyridin-3-yl)-1-(1-isopropyl-3-methyl-1H-pyrazol-4-yl)-3-methyl-1,3-dihydro-imidazo[4,5-c]quinolin-2-one] | 7
10 | 65 (≈ 134 µM) | 50 | 19 | CCOc1ccc(-c2ccc3ncc4c(c3c2)n(-c2cn(CC(=O)N(C)C)nc2C)c(=O)n4C)cn1 [Example 3.9, 2-{4-[8-(6-Ethoxy-pyridin-3-yl)-3-methyl-2-oxo-2,3-dihydro-imidazo[4,5-c]quinolin-1-yl]-3-methyl-pyrazol-1-yl}-N,N-dimethyl-acetamide] | 5
< 5 | 3 (≈ 6.67 µM) | < 5 | < 5 | CNc1cc(-c2ccc3ncc4c(c3c2)n(-c2cn(C)nc2Cl)c(=O)n4C)cnc1CO [Example 158.3, 1-(3-Chloro-1-methyl-1H-pyrazol-4-yl)-8-(6-hydroxymethyl-5-methylamino-pyridin-3-yl)-3-methyl-1,3-dihydro-imidazo[4,5-c]quinolin-2-one] | < 0.5
17 | 35 (≈ 76.8 µM) | 90 | 37 | Cc1nn(C)cc1-n1c(=O)n(C)c2cnc3ccc(-c4cncc(N5CCOCC5)c4)cc3c21 [Example 175.1, 1-(1,3-Dimethyl-1H-pyrazol-4-yl)-3-methyl-8-(5-morpholin-4-yl-pyridin-3-yl)-1,3-dihydro-imidazo[4,5-c]quinolin-2-one] | 1
265 | > 486 | 356 | 744 | CCOc1ncc(-c2ccc3ncc4c(c3c2)n(-c2cn(C)nc2C)c(=O)n4C)cc1N(C)C(C)=O [Example 63, N-{5-[1-(1,3-Dimethyl-1H-pyrazol-4-yl)-3-methyl-2-oxo-2,3-dihydro-1H-imidazo[4,5-c]quinolin-8-yl]-2-ethoxy-pyridin-3-yl}-N-methyl-acetamide] | 13.4
